From ChEMBL document CHEMBL4417631, “Oral peptide inhibitors of interleukin-23 receptor and their use to treat inflammatory bowel diseases” (2017)
*1 amine or outer side, *2 acyl side, *3 side chain or, on linkers, in order; H or OH if unused. Where a SMILES comes first, the peptide text is derived from it. Bridges are numbered along the chain shown (N, C = ends). [ ]: non-standard residue; d: D form. Abu(4-yl) = O=C([C@H](CC[*:3])N[*:1])[*:2]; 2Nal = N[C@@H](Cc1ccc2ccccc2c1)C(=O)O; AEF = NCCOc1ccc(C[C@H](N)C(=O)O)cc1; αMeK = C[C@](N)(CCCCN)C(=O)O; Aib = CC(C)(N)C(=O)O

Experiments:
Interleukin-23 receptor [1] = target: T1, Interleukin-23 receptor (Homo sapiens, UniProt Q5VWK5); assay: Inhibition of interleukin-23 binding to human interleukin-23 receptor incubated for 2 hrs by competitive binding ELISA
T1 sequence (Q5VWK5 whole entry): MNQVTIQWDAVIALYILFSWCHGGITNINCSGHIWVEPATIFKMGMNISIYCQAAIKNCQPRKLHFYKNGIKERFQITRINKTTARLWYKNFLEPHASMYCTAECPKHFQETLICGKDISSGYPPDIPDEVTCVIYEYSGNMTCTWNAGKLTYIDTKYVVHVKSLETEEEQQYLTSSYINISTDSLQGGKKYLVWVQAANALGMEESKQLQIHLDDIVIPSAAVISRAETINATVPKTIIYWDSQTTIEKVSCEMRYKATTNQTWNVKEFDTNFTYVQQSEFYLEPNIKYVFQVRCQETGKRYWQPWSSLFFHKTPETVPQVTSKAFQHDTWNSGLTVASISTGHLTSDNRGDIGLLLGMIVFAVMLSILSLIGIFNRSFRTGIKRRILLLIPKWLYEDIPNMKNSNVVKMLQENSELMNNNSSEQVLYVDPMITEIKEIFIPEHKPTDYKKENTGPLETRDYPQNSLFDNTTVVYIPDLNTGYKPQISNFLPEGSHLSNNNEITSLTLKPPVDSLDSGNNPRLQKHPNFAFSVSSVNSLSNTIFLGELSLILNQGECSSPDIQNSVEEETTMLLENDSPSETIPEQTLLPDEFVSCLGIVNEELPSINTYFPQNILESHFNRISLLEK

Interleukin-23 receptor [2] = target: T1, Interleukin-23 receptor; assay: Inhibition of interleukin-23 receptor in human natural killer cells assessed as reduction in IL23/IL18-induced IFNgamma production incubated for 20 to 24 hrs by ELISA; assay type: cell-based
[3] = Half life in simulated intestinal fluid at 20 uM by LC-MS/MS analysis; assay type: ADME
[4] = Inhibition of interleukin-23 binding to rat interleukin-23 receptor incubated for 2 hrs by competitive binding ELISA
Interleukin-23 receptor [5] = target: T1, Interleukin-23 receptor; assay: Inhibition of interleukin-23 receptor in human DB cells assessed as reduction in IL-23-stimulated STAT3 phosphorylation incubated for 30 mins by HTRF assay; assay type: cell-based
[6] = Half life in simulated gastric fluid at 20 uM by LC-MS/MS analysis; assay type: ADME

Row | Structure (SMILES) | IC50 (Interleukin-23 receptor [1]) [nM] | half-life at 20 µM [3] [h] | IC50 [4] [nM] | IC50 (Interleukin-23 receptor [5]) [nM] | half-life at 20 µM [6] [h] | IC50 (Interleukin-23 receptor [2]) [nM]
1 | CC(=O)NCCCC[C@H](NC(=O)[C@](C)(CCCCNC(C)=O)NC(=O)[C@H](Cc1ccc2ccccc2c1)NC(=O)[C@H](Cc1ccc(OCCNC(C)=O)cc1)NC(=O)[C@@H]1CSCC[C@H](NC(C)=O)C(=O)N[C@@H](CCC(N)=O)C(=O)N[C@@H]([C@@H](C)O)C(=O)N[C@@H](Cc2c[nH]c3ccccc23)C(=O)N[C@@H](CCC(N)=O)C(=O)N1)C(=O)N[C@@H](CC(N)=O)C(=O)NCC(N)=O | < 10 | 3 to 6 | < 10 | < 10 | < 1 | < 25
2 | CC(=O)NCCCC[C@H](NC(=O)[C@](C)(CCCCN)NC(=O)[C@H](Cc1ccc2ccccc2c1)NC(=O)[C@H](Cc1ccc(C(N)=O)cc1)NC(=O)[C@@H](NC(=O)[C@H](CCC(N)=O)NC(=O)[C@H](Cc1c[nH]c2ccccc12)NC(=O)[C@@H](NC(=O)[C@H](CCC(N)=O)NC(=O)[C@@H](NC(C)=O)C(C)(C)S)[C@@H](C)O)C(C)(C)S)C(=O)N[C@@H](CC(N)=O)C(=O)N[C@@H](CC(N)=O)C(N)=O |  |  | 25 to 100 | < 10 |  | < 10
3 | CC(=O)NCCCC[C@H](NC(=O)C(C)(C)NC(=O)[C@H](Cc1ccc2ccccc2c1)NC(=O)[C@H](Cc1ccc(C(N)=O)cc1)NC(=O)[C@@H](NC(=O)[C@H](CCC(N)=O)NC(=O)[C@H](Cc1c[nH]c2ccccc12)NC(=O)[C@@H](NC(=O)[C@H](CC(N)=O)NC(=O)[C@@H](NC(C)=O)C(C)(C)S)[C@@H](C)O)C(C)(C)S)C(=O)N[C@@H](CC(N)=O)C(=O)N[C@@H](CC(N)=O)C(N)=O |  | 1 to 2 |  |  | 3 to 6 | < 10
4 | CC(=O)NCCCC[C@H](NC(=O)[C@@](C)(NC(=O)[C@H](Cc1ccc2ccccc2c1)NC(=O)[C@H](Cc1ccc(OCCN)cc1)NC(=O)[C@@H]1CSCC[C@H](NC(C)=O)C(=O)N[C@@H](CCC(N)=O)C(=O)N[C@@H]([C@@H](C)O)C(=O)N[C@@H](Cc2c[nH]c3ccccc23)C(=O)N[C@@H](CCC(N)=O)C(=O)N1)C(C)C)C(=O)N[C@@H](CC(N)=O)C(=O)NCC(N)=O | < 10 | 2 to 3 | < 10 | < 10 | 1 to 2 | < 25
5 | CC(=O)N[C@H]1CCSC[C@@H](C(=O)N[C@@H](Cc2ccc(OCCN)cc2)C(=O)N[C@@H](Cc2ccc3ccccc3c2)C(=O)N[C@@](C)(CCCCN)C(=O)N[C@@H](CCCCNC(=O)CC(C)C)C(=O)N[C@@H](CC(N)=O)C(=O)NCC(N)=O)NC(=O)[C@H](CCC(N)=O)NC(=O)[C@H](Cc2c[nH]c3ccccc23)NC(=O)[C@H]([C@@H](C)O)NC(=O)[C@H](CCC(N)=O)NC1=O | < 10 | > 6 | 10 to 25 | < 10 | > 6 | < 25
6 | CC(=O)NCCCC[C@H](NC(=O)C(C)(C)NC(=O)[C@H](Cc1ccc2ccccc2c1)NC(=O)[C@H](Cc1ccc(OCCN)cc1)NC(=O)[C@@H](NC(=O)[C@H](CCC(N)=O)NC(=O)[C@H](Cc1c[nH]c2ccccc12)NC(=O)[C@@H](NC(=O)[C@H](CC(N)=O)NC(=O)[C@@H](NC(C)=O)C(C)(C)S)[C@@H](C)O)C(C)(C)S)C(=O)N[C@@H](CC(N)=O)C(=O)N[C@@H](CC(N)=O)C(N)=O | < 10 | > 6 | < 10 | < 10 | > 6 | < 10
7 | CC(=O)N[C@H]1CCSC[C@@H](C(=O)N[C@@H](Cc2ccc(OCCN)cc2)C(=O)N[C@@H](Cc2ccc3ccccc3c2)C(=O)NC2(C(=O)N[C@@H](CCC(=O)O)C(=O)N[C@@H](CC(N)=O)C(=O)N[C@@H](CC(N)=O)C(N)=O)CCC2)NC(=O)[C@H](CCC(N)=O)NC(=O)[C@H](Cc2c[nH]c3ccccc23)NC(=O)[C@H]([C@@H](C)O)NC(=O)[C@H](CCC(N)=O)NC1=O |  | < 1 | < 10 | < 10 | 1 to 2 | < 25

Now from value to compound, other results behind:

Row | IC50 (Interleukin-23 receptor [1]) [nM] | half-life at 20 µM [3] [h] | IC50 [4] [nM] | IC50 (Interleukin-23 receptor [5]) [nM] | half-life at 20 µM [6] [h] | Structure (SMILES) | IC50 (Interleukin-23 receptor [2]) [nM]
8 | 10 to 25 | < 1 | 10 to 25 | < 10 |  | CC(=O)N[C@H]1CCSC[C@@H](C(=O)N[C@@H](Cc2ccc(O)cc2)C(=O)N[C@@H](Cc2ccc3ccccc3c2)C(=O)N[C@@](C)(CC(C)C)C(=O)N[C@@H](CCC(=O)O)C(=O)N[C@@H](CC(N)=O)C(=O)NCC(N)=O)NC(=O)[C@H](CCC(N)=O)NC(=O)[C@H](Cc2c[nH]c3ccccc23)NC(=O)[C@H]([C@@H](C)O)NC(=O)[C@H](CCC(N)=O)NC1=O | < 25
9 |  | > 6 | 10 to 25 | < 10 | > 6 | CC(=O)NCCCC[C@H](NC(=O)C(C)(C)NC(=O)[C@H](Cc1ccc2ccccc2c1)NC(=O)[C@H](Cc1ccc(OCCN)cc1)NC(=O)[C@@H](NC(=O)[C@H](CCC(N)=O)NC(=O)[C@H](Cc1c[nH]c2ccccc12)NC(=O)[C@@H](NC(=O)[C@H](CC(N)=O)NC(=O)[C@@H](NC(C)=O)C(C)(C)S)[C@@H](C)O)C(C)(C)S)C(=O)N[C@@H](CC(N)=O)C(=O)NCCC(N)=O | < 10
10 | < 10 | 2 to 3 | 10 to 25 | < 10 | 3 to 6 | CC(=O)N[C@H]1CCSC[C@@H](C(=O)N[C@@H](Cc2ccc(OCCN)cc2)C(=O)N[C@@H](Cc2ccc3ccccc3c2)C(=O)NC(C)(C)C(=O)N[C@@H](CCC(N)=O)C(=O)N[C@@H](CC(N)=O)C(=O)NCC(N)=O)NC(=O)[C@H](CCC(N)=O)NC(=O)[C@H](Cc2c[nH]c3ccccc23)NC(=O)[C@H]([C@@H](C)O)NC(=O)[C@H](CCC(N)=O)NC1=O (Ac-[Abu(4-yl)]QTWQC[AEF][2Nal][Aib]QNG-NH2; thioether 1-6) | < 25
11 |  |  |  | < 10 |  | COc1ccc(C[C@H](NC(=O)[C@@H](NC(=O)[C@H](CCC(N)=O)NC(=O)[C@H](Cc2c[nH]c3ccccc23)NC(=O)[C@@H](NC(=O)[C@H](CCC(N)=O)NC(=O)[C@@H](NC(C)=O)C(C)(C)S)[C@@H](C)O)C(C)(C)S)C(=O)N[C@@H](Cc2ccc3ccccc3c2)C(=O)N[C@@](C)(CCCCN)C(=O)N[C@@H](CCCCNC(C)=O)C(=O)N[C@@H](CC(N)=O)C(=O)N[C@@H](CC(N)=O)C(N)=O)cc1 | < 10
12 | 10 to 25 |  | 25 to 100 | < 10 |  | COc1ccc(C[C@H](NC(=O)[C@H](Cc2ccc(OCCN)cc2)NC(=O)[C@@H]2CSCC[C@H](NC(C)=O)C(=O)N[C@@H](CCC(N)=O)C(=O)N[C@@H]([C@@H](C)O)C(=O)N[C@@H](Cc3c[nH]c4ccccc34)C(=O)N[C@@H](CCC(N)=O)C(=O)N2)C(=O)N[C@@](C)(CCCCN)C(=O)N[C@@H](CCCCNC(C)=O)C(=O)N[C@@H](CC(N)=O)C(=O)NCC(N)=O)cc1OC | < 25
13 | < 10 | 3 to 6 | < 10 | < 10 | 3 to 6 | CC(=O)N[C@H]1CCSC[C@@H](C(=O)N[C@@H](Cc2ccc(OCCN)cc2)C(=O)N[C@@H](Cc2ccc3ccccc3c2)C(=O)N[C@@](C)(CCCCN)C(=O)N[C@@H](CCC(=O)O)C(=O)N[C@@H](CC(N)=O)C(=O)N[C@@H](CCC(N)=O)C(N)=O)NC(=O)[C@H](CCC(N)=O)NC(=O)[C@H](Cc2c[nH]c3ccccc23)NC(=O)[C@H]([C@@H](C)O)NC(=O)[C@H](CCC(N)=O)NC1=O (Ac-[Abu(4-yl)]QTWQC[AEF][2Nal][αMeK]ENQ-NH2; thioether 1-6) | < 25
14 |  | > 6 | 10 to 25 | < 10 | 3 to 6 | CC(=O)NCCCC[C@H](NC(=O)[C@@](C)(NC(=O)[C@H](Cc1ccc2ccccc2c1)NC(=O)[C@H](Cc1ccc(C(N)=O)cc1)NC(=O)[C@@H](NC(=O)[C@H](CCC(N)=O)NC(=O)[C@H](Cc1c[nH]c2ccccc12)NC(=O)[C@@H](NC(=O)[C@H](CCC(N)=O)NC(=O)[C@@H](NC(C)=O)C(C)(C)S)[C@@H](C)O)C(C)(C)S)C(C)C)C(=O)N[C@@H](CC(N)=O)C(=O)N[C@@H](CC(N)=O)C(N)=O | 10 to 25
15 | < 10 |  | 10 to 25 | < 10 |  | COc1ccc(C[C@H](NC(=O)[C@@H]2CSCC[C@H](NC(C)=O)C(=O)N[C@@H](CCC(N)=O)C(=O)N[C@@H]([C@@H](C)O)C(=O)N[C@@H](Cc3c[nH]c4ccccc34)C(=O)N[C@@H](CCC(N)=O)C(=O)N2)C(=O)N[C@@H](Cc2ccc3ccccc3c2)C(=O)N[C@@](C)(CCCCNC(=O)COCC(=O)NCCCC[C@](C)(NC(=O)[C@H](Cc2ccc3ccccc3c2)NC(=O)[C@H](Cc2ccc(OC)cc2)NC(=O)[C@@H]2CSCC[C@H](NC(C)=O)C(=O)N[C@@H](CCC(N)=O)C(=O)N[C@@H]([C@@H](C)O)C(=O)N[C@@H](Cc3c[nH]c4ccccc34)C(=O)N[C@@H](CCC(N)=O)C(=O)N2)C(=O)N[C@@H](CCC(=O)O)C(=O)N[C@@H](CC(N)=O)C(=O)NCC(N)=O)C(=O)N[C@@H](CCC(=O)O)C(=O)N[C@@H](CC(N)=O)C(=O)NCC(N)=O)cc1 | < 25
